{
  "source": "patent US6057371A",
  "about": "“Sigma receptor ligands and the use thereof” (Virginia Commonwealth University, priority 1992, dated 2000)",
  "key": {"sigma sites": {"system": "sigma sites", "details": "cited, cited from earlier work; for affinity for sigma-1 site compared to sigma-2 site: Hellewell and Bowen"}, "sigma-2 binding site": {"biological_target": "T1, sigma-2 binding site (Cavia porcellus, UniProt H0V073)", "T1 construct": "Guinea pig whole membrane preparations (P2 microsomal fraction); from tissue; host or cells: guinea pig membranes (P2 microsomal fraction), as described by Weber et al; brain inferred from the sister test b489", "T1 sequence (H0V073 1-176)": "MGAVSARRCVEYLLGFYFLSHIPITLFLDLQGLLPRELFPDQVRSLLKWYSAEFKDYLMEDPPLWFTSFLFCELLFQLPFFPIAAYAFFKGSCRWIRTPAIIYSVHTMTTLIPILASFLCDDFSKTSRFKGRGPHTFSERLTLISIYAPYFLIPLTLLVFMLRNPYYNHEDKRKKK", "experiment": "biochemical", "parameters": "species or system guinea pig", "description": "For the standard equilibrium assay, the mixtures were incubated for 30 min. at room temperature, then filtered and the radioactivity determined as described above."}, "[1]": {"details": "cited, Glennon 1984; cited from earlier work"}, "5-HT1A receptor": {"biological_target": "T2, 5-HT1A receptor (Rattus norvegicus, UniProt P19327)", "T2 sequence (P19327 1-422)": "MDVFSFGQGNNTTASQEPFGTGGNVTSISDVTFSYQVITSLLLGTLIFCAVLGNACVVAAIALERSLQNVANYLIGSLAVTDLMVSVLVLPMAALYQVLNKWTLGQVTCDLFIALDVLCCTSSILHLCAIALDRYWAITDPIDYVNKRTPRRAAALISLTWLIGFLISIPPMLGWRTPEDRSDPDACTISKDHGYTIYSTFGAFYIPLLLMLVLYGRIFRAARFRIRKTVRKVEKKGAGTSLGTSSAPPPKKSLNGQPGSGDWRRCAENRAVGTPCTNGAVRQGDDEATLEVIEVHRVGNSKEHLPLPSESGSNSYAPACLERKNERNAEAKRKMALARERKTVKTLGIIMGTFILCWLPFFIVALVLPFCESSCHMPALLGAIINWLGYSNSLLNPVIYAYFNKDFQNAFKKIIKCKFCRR", "experiment": "biochemical", "assay_type": "binding", "parameters": "47: 529-540 (1986); from tissue; host or cells: brain tissue, inferred from the cited method (rat frontal cortex)", "details": "Table 5", "experimental": "Further sigma receptor binding assays against [^3 H]DTG and 5HT-1A binding assays were conducted according to the procedure outlined in the previous examples."}, "Dopamine D2 receptor": {"biological_target": "T3, Dopamine D2 receptor (Rattus norvegicus, UniProt P61169)", "T3 construct": "Rat striatal membranes were prepared from frozen tissue; from tissue; host or cells: rat striatum, frozen tissue", "T3 sequence (P61169 whole entry)": "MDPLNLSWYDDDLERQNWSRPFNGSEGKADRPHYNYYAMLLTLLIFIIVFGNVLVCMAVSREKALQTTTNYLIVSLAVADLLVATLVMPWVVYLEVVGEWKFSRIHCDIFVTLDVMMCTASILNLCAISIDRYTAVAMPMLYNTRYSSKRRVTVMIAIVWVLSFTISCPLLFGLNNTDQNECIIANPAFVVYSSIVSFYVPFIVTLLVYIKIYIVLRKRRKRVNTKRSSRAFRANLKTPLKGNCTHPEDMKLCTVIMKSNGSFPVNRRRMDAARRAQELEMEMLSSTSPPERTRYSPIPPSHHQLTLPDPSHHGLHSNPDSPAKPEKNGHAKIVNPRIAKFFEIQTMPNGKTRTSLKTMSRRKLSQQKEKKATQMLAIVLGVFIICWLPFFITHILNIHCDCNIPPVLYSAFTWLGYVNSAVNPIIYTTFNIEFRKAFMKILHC", "experiment": "Dopamine D2 receptor binding, [^3 H]domperidone, striatal membranes", "details": "Table 4", "experimental": "(§1) Dopamine D1 and D2 receptor binding assays were performed as described by Billard et al., Life Sci. 35: 1885-1893 (1984) using [^3 H]SCH-23390 for the D1 receptors and [^3 H]domperidone for the D2 receptors (Baudry et al., Arch. Pharmacol. 308: 231-237 (1979).\n(§2) Rat striatal membranes were prepared from frozen tissue by Poltron homogenization in 25 volumes of ice cold Tris-EDTA buffer (50 mM Tris-HCl, 1 mM EDTA, pH 7.4 at 4° C.). The homogenate was centrifuged at 48,000× g for 10 min. at 4° C., and the pellet was resuspended in 25 volumes of the same buffer. This suspension was then incubated at 37° C. for 15 min., followed by recentrifugation as before. The resulting pellet was resuspended in 267 volumes of assay buffer (50 mM Tris-HCl, 120 mM NaCl, 5 mM KCl, 2 mM CaCl2, 1 mM MgCl2, pH 7.4 at 37° C.).\n(§3) The binding assays were conducted with 100 uL of [^3 H]SCH-23390 or [^3 H]domperidone (to give about 1 nM final), 100 uL of buffer or drug solution, and 800 uL of membrane suspension (to give about 250 ug of striatal membrane protein per assay). The tubes were incubated at 37° C. for 60 min. The assays were stopped by rapid filtration over Schleicher & Schuell #32 or Whatman GF/B glass fiber filters (presoaked in 0.5% polyethyleneimine for [^3 H]domperidone binding), followed by two 3 mL washes of ice cold buffer using a Brandel cell harvester. After vigorous shaking, the filter disks were counted at 52% efficiency in 5 mL of Cytoscint (ICN)."}, "sigma receptor": {"biological_target": "sigma receptor", "experiment": "Sigma receptor binding, [^3 H]DTG, brain membranes (both sigma-1 and sigma-2 sites)", "parameters": "species or system guinea pig", "details": "Table 7; Phenyl-(CH2)x -NH--(CH2)y -Phenyl; read-out: Ki"}, "PCP receptor": {"biological_target": "PCP receptor", "experiment": "PCP receptor binding, ^3 H-MK-801", "parameters": "species or system rat", "details": "Table 4", "experimental": "PCP receptor binding assays against ^3 H-MK-801 were conducted as described by Keana et al., Proc. Natl. Acad. Sci (USA) 86: 5631-5635 (1989); Keana et al., Life Sciences 43: 965-973 (1988). For (+) ^3 H-MK-801 binding, 1 nM of radioligand was incubated with about 100 ug of thawed rat brain membrane protein for 4 hr at room temperature. The assays were carried out in 5 mM Tris/acetate and were stopped by rapid filtration through Whatman GF/B or Schleicher & Schuell no. 32 glass fiber filters (presoaked in 0.05% polyethylenamine)."}, "sigma-1 binding site": {"biological_target": "T4, sigma-1 binding site (Cavia porcellus, UniProt Q60492)", "T4 construct": "Guinea pig whole membrane preparations (P2 microsomal fraction); from tissue; host or cells: guinea pig membranes (P2 microsomal fraction), as described by Weber et al; brain inferred from the sister test b489", "T4 sequence (Q60492 whole entry)": "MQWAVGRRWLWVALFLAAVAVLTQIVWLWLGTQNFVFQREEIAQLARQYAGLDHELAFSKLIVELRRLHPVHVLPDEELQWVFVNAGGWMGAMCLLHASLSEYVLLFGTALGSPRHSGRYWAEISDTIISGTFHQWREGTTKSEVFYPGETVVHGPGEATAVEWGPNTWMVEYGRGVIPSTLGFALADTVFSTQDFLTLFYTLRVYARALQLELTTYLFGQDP", "experiment": "biochemical", "parameters": "species or system guinea pig", "details": "Table 10", "experimental": "[^3 H]DTG was purchased from DuPont/NEN.\nThe radioactivity on the filters was determined by scintillation spectrometry at an efficiency of about 50% using Cytoscint (ICN) scintillation fluid."}, "Dopamine D1 receptor": {"biological_target": "T5, Dopamine D1 receptor (Rattus norvegicus, UniProt P18901)", "T5 construct": "Rat striatal membranes were prepared from frozen tissue; from tissue; host or cells: rat striatum, frozen tissue", "T5 sequence (P18901 whole entry)": "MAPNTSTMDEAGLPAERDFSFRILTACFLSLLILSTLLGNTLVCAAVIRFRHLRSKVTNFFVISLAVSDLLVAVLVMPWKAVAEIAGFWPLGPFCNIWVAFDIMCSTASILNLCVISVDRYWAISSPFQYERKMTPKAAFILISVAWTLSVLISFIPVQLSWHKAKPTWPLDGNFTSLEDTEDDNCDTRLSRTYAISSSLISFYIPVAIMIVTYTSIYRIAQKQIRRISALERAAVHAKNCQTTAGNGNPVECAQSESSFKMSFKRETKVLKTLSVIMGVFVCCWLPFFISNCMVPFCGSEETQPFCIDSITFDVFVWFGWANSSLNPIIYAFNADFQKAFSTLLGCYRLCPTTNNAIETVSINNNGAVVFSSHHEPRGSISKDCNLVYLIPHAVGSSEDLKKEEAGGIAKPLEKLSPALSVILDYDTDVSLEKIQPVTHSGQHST", "experiment": "Dopamine D1 receptor binding, [^3 H]SCH-23390, striatal membranes", "details": "Table 4", "experimental": "as §1, §2, §3"}},
  "note": "Read-outs that look alike come from different tables or passages of the source.",
  "data": [
    {"smiles": "C=CCN1CC[C@]2(C)c3cc(O)ccc3C[C@H]1[C@H]2C", "note": "[(+)SKF 10047, reference compound]", "values": [
      {"measurement": "affinity for sigma-1 site compared to sigma-2 site", "setting": "sigma sites", "value": "nearly two orders of magnitude higher affinity for the sigma-1 site compared to the sigma-2 site"},
      {"measurement": "Ki", "setting": "sigma-2 binding site; SIGMA-2 KI vs. 3H-DTG + PENTAZOCINE MEAN", "value": 16200, "unit": "nM"}
    ]},
    {"smiles": "O=C(CCCN1CCC(O)(c2ccc(Cl)cc2)CC1)c1ccc(F)cc1", "note": "[Haloperidol]", "values": [
      {"measurement": "affinity for sigma sites vs. N-allyl normetrazocine (NANM)", "setting": "sigma sites; Tam 1984", "value": "approximately 100 fold"}
    ]},
    {"smiles": "NC1CCc2ccccc2C1", "note": "(centres unmarked) [2-aminotetralin]", "values": [
      {"measurement": "effectiveness vs. racemic amphetamine", "setting": "[1]", "value": "about one-half as effective as racemic amphetamine"}
    ]},
    {"smiles": "CC(C)=CCN1CCC2(C)c3cc(O)ccc3CC1C2C", "note": "(single isomer, unassigned; (+)) [(+)Pentazocine]", "values": [
      {"measurement": "affinity for sigma-1 site compared to sigma-2 site", "setting": "sigma sites", "value": "nearly two orders of magnitude higher affinity for the sigma-1 site compared to the sigma-2 site"}
    ]},
    {"smiles": "c1ccc(CCCNCCCc2ccccc2)cc1", "note": "[Compound 15, Di-(3-phenylpropyl)-amine]", "values": [
      {"measurement": "Ratio 5-HT1A /σ", "setting": "5-HT1A receptor", "value": 2},
      {"measurement": "IC50", "setting": "5-HT1A receptor; read-out: 5-HT1A IC50", "value": 30.7, "unit": "nM"},
      {"measurement": "IC50", "setting": "Dopamine D2 receptor", "value": "1680 ± 3600", "unit": "nM"},
      {"measurement": "Ki", "setting": "sigma receptor", "value": 14, "unit": "nM"},
      {"measurement": "IC50", "setting": "PCP receptor", "value": "> 10000", "unit": "nM"},
      {"measurement": "Ki", "setting": "sigma-1 binding site; read-out: SIGMA-1 KI vs. 3H-PENTAZOCINE MEAN", "value": 11.4, "unit": "nM"},
      {"measurement": "S1/S2 Ratio", "setting": "sigma-1 binding site; sigma-1/sigma-2", "value": ".178"},
      {"measurement": "Ki", "setting": "sigma-2 binding site; Table 10, read-out: SIGMA-2 KI vs. 3H-DTG + PENTAZOCINE MEAN", "value": 63.9, "unit": "nM"},
      {"measurement": "IC50", "setting": "Dopamine D1 receptor", "value": "> 10000", "unit": "nM"}
    ]}
  ]
}
